ChEMBL document CHEMBL5154655, “Identification of indole-based activators of insulin degrading enzyme” (Eur J Med Chem, 2022)
In brackets after ≈: the same amount, converted by molar mass.

What was measured:
Insulin-degrading enzyme = target: T1, Insulin-degrading enzyme (Homo sapiens, UniProt P14735); assay: Activation of human recombinant IDE using ATTO 655-Cys-Lys-Leu-Val-Phe-Phe-Ala-Glu-Asp-trp as substrate incubated for 10 mins followed by substrate addition and measured after 20 mins by fluorescence spectrophotometer analysis
T1 sequence (P14735 whole entry): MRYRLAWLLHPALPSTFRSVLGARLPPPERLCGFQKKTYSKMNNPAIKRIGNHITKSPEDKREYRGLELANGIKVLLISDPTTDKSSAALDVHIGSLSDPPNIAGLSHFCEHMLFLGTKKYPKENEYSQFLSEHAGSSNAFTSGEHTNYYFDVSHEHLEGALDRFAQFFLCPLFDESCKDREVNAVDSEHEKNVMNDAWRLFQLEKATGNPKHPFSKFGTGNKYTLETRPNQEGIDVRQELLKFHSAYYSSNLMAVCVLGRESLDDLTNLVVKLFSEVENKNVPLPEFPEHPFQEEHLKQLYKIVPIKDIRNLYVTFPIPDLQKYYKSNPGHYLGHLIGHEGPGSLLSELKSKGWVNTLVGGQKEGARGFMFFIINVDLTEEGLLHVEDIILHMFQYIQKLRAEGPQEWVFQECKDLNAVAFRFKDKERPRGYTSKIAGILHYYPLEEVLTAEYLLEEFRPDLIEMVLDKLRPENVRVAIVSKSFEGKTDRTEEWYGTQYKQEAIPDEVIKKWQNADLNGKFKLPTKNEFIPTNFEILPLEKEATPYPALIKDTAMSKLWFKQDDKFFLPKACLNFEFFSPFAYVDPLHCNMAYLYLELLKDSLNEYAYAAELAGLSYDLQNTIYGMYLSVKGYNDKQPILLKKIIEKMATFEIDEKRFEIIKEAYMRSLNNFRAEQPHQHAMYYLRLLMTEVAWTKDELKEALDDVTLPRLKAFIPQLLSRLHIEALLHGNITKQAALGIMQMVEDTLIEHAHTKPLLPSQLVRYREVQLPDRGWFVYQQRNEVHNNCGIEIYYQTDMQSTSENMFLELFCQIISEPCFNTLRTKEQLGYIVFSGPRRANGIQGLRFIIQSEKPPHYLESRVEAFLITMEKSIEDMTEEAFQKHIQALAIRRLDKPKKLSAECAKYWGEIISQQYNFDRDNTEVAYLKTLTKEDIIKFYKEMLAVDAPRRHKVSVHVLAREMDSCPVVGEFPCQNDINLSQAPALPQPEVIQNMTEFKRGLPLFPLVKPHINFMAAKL

[1] = Solubility of the compound at 100 uM; assay type: physicochemical
[2] = Solubility of the compound at 15 uM; assay type: physicochemical
[3] = Lipophilicity, logD of the compound in 1-octanol and phosphate buffer at pH 7.4 incubated for 2 hrs under shaking condition by LC-MS/MS analysis; assay type: physicochemical; details: 1-octanol/phosphate buffer
[4] = Dissociation constant, pKa of the compound; assay type: physicochemical
[5] = Aqueous thermodynamic solubility of the compound in phosphate buffer/MeOH at pH 7.4 measured after 24 hrs by LC-MS/MS analysis; assay type: physicochemical; details: read-out: Therm_solubility
[6] = Stability in rat plasma assessed as half life at 10 uM; assay type: ADME, cell-free

Row | Compound | EC50 (Insulin-degrading enzyme) [µM] | solubility [1] | other results
1 | CS(=O)(=O)n1cc(CCCC(=O)NCCCn2ccnc2)c2ccccc21 | 26.9 |  | 
2 | Cn1cnc(S(=O)(=O)n2cc(CCCC(=O)NCCCn3ccnc3)c3ccccc32)c1 | 28.8 |  | 
3 | O=C(CCCC1C(=O)Nc2ccccc21)NCCCn1ccnc1 (stereo unspecified) | 38.9 |  | 
4 | O=C(NCCCn1ccnc1)c1cn(S(=O)(=O)c2ccccc2)c2ccccc12 |  | Insoluble | 
5 | O=C(CCCc1cn(C(=O)c2ccc(F)cc2)c2ccccc12)NCCCn1ccnc1 |  | Insoluble | 
6 | O=C(CCCc1cn(S(=O)(=O)c2cccs2)c2ccccc12)NCCCn1ccnc1 |  |  | solubility thermodynamic at 24 h [5]: 8.9 µM (≈ 4.06 µg/mL); logD at 2 h [3]: 2.7; half-life at 10 µM [6]: > 24 h
7 | O=C(CCCc1cn(S(=O)(=O)c2cccc3nsnc23)c2ccccc12)NCCCn1ccnc1 |  | Insoluble | 
8 | O=C(CCCc1cn(S(=O)(=O)c2ccccc2)c2ccccc12)NCCCc1c[nH]cn1 |  |  | pKa [4]: 7
9 | CN(CCCn1ccnc1)C(=O)CCCc1cn(S(=O)(=O)c2ccccc2)c2ccccc12 | 14.1 |  | 
10 | N[C@@H](Cc1cn(S(=O)(=O)c2ccccc2)c2ccccc12)C(=O)NCCCn1ccnc1 | 14.5 |  | 
11 | O=C(NCCCn1ccnc1)NCCc1cn(S(=O)(=O)c2ccccc2)c2ccccc12 | 10.2 |  | 
12 | O=C(CCCc1cn(S(=O)(=O)c2ccccc2)c2ccccc12)NCCCN1CCCC1 |  |  | pKa [4]: 8.8

Now from value to compound, other results behind:

Row | EC50 (Insulin-degrading enzyme) [µM] | solubility [1] | Compound | other results
13 |  | Insoluble | O=C(CCCc1cn(-c2ccccc2)c2ccccc12)NCCCn1ccnc1 | 
14 | 15.5 |  | O=C(CCc1cn(S(=O)(=O)c2ccccc2)c2ccccc12)NCCCn1ccnc1 | 
15 |  | Insoluble | O=C(CCCCc1cn(S(=O)(=O)c2ccccc2)c2ccccc12)NCCCn1ccnc1 | 
16 | 26.9 |  | O=C(CCCc1cn(S(=O)(=O)c2cccnc2)c2ccccc12)NCCCn1ccnc1 | 
17 | 13.8 |  | O=C(CCCc1cn(S(=O)(=O)c2ccsc2)c2ccccc12)NCCCn1ccnc1 | 
18 |  | Insoluble | O=C(CCCc1cn(C(=O)c2ccc(Cl)cc2)c2ccccc12)NCCCn1ccnc1 | 
19 | 13.2 |  | O=C(CCCc1cn(S(=O)(=O)c2ccccc2)c2ccccc12)NCCCn1ccnc1 | solubility [2]: Soluble; logD at 2 h [3]: 2.7; pKa [4]: 6.9
20 |  | Insoluble | O=C(CCCc1cn(S(=O)(=O)c2ccc(F)cc2)c2ccccc12)NCCCn1ccnc1 | 
21 |  | Insoluble | O=C(CCCc1cn(S(=O)(=O)c2ccccc2F)c2ccccc12)NCCCn1ccnc1 | 
22 | 21.4 |  | O=C(CCCc1cn(C(=O)c2cccs2)c2ccccc12)NCCCn1ccnc1 | 
23 |  | Insoluble | O=C(CCCc1cn(S(=O)(=O)c2ccc(-c3ccccc3)cc2)c2ccccc12)NCCCn1ccnc1 | 
24 | 10.2 | Insoluble | O=C(CCCc1cn(S(=O)(=O)c2cccc(F)c2)c2ccccc12)NCCCn1ccnc1 | 
25 | 12.3 |  | O=C(CCCc1nn(S(=O)(=O)c2ccccc2)c2ccccc12)NCCCn1ccnc1 | 
